Experiments:
Assay in all cases: relative viability (nuclei count vs DMSO), 5 days (fraction); higher = more cells survive
[1] = system: NCI-H650
Procedure, shortened: (§1)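 A single step with final 0.05% Triton X-100, 1% formaldehyde and 1 ug/ml Hoechst fixed the cells and stained nuclei 5 days after treatment. Lung cancer cell lines in 1536-well plates had been treated by pin tool the day after seeding with one drug alone or a fixed anchor-drug dose plus five library-drug doses (not always all listed) in √10 steps, and nuclei were counted on 4× images. Relative viability is the ratio of nuclei in treated wells to nuclei in vehicle wells, taken as the median of duplicate plates.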

[2] = system: 201T
Procedure, shortened: as §1

[3] = system: COR-L23
Procedure, shortened: as §1

[4] = system: NCI-H838
Procedure, shortened: as §1

[5] = system: NCI-H1666
Procedure, shortened: as §1

[6] = system: NCI-H441
Procedure, shortened: as §1

[7] = system: HARA
Procedure, shortened: as §1

[8] = system: A-427
Procedure, shortened: as §1

[9] = system: EKVX
Procedure, shortened: as §1

[10] = system: NCI-H1975
Procedure, shortened: as §1

[11] = system: HCC-827
Procedure, shortened: as §1

[12] = system: NCI-H596
Procedure, shortened: as §1

[13] = system: HCC-15
Procedure, shortened: as §1

[14] = system: HCC-44
Procedure, shortened: as §1

[15] = system: NCI-H23
Procedure, shortened: as §1

[16] = system: NCI-H1792
Procedure, shortened: as §1

[17] = system: COR-L 105
Procedure, shortened: as §1

[18] = system: NCI-H1437
Procedure, shortened: as §1

[19] = system: BEN
Procedure, shortened: as §1

NC(=O)Nc1cc(-c2cccc(F)c2)sc1C(=O)N[C@H]1CCCNC1 [AZD7762] + CC(C)C[C@H](NC(=O)[C@H](Cc1ccccc1)NC(=O)c1cnccn1)B(O)O [Bortezomib] (partner 0.002 µM)
relative viability ([1]; first compound 0.01 µM): 0.851 | relative viability ([1]; first compound 0.03162 µM): 0.892 | relative viability ([1]; first compound 0.1 µM): 0.772 | relative viability ([1]; first compound 0.3162 µM): 0.687 | relative viability ([1]; first compound 1 µM): 0.767 | relative viability ([2]; first compound 0.01 µM): 1.09 | relative viability ([2]; first compound 0.03162 µM): 1.12 | relative viability ([2]; first compound 0.1 µM): 1.12 | relative viability ([2]; first compound 0.3162 µM): 1.12 | relative viability ([2]; first compound 1 µM): 1.19 | relative viability ([3]; first compound 0.01 µM): 1.12 | relative viability ([3]; first compound 0.03162 µM): 0.981 | relative viability ([3]; first compound 0.1 µM): 0.985 | relative viability ([3]; first compound 0.3162 µM): 0.905 | relative viability ([3]; first compound 1 µM): 0.229 | relative viability ([4]; first compound 0.01 µM): 0.773 | relative viability ([4]; first compound 0.03162 µM): 0.814 | relative viability ([4]; first compound 0.1 µM): 0.715 | relative viability ([4]; first compound 0.3162 µM): 0.724 | relative viability ([4]; first compound 1 µM): 0.303 | relative viability ([5]; first compound 0.01 µM): 0.906 | relative viability ([5]; first compound 0.03162 µM): 0.906 | relative viability ([5]; first compound 0.1 µM): 1.13 | relative viability ([5]; first compound 0.3162 µM): 0.848 | relative viability ([5]; first compound 1 µM): 0.688 | relative viability ([6]; first compound 0.01 µM): 1.13 | relative viability ([6]; first compound 0.03162 µM): 0.972 | relative viability ([6]; first compound 0.1 µM): 0.313 | relative viability ([6]; first compound 0.3162 µM): 0.456 | relative viability ([6]; first compound 1 µM): 0.548 | relative viability ([7]; first compound 0.01 µM): 1.08 | relative viability ([7]; first compound 0.03162 µM): 1.11 | relative viability ([7]; first compound 0.1 µM): 1.14 | relative viability ([7]; first compound 0.3162 µM): 1.13 | relative viability ([7]; first compound 1 µM): 0.42 | relative viability ([8]; first compound 0.01 µM): 0.988 | relative viability ([8]; first compound 0.03162 µM): 0.965 | relative viability ([8]; first compound 0.1 µM): 0.989 | relative viability ([8]; first compound 0.3162 µM): 1.04 | relative viability ([8]; first compound 1 µM): 0.272 | relative viability ([9]; first compound 0.01 µM): 0.996 | relative viability ([9]; first compound 0.03162 µM): 1.04 | relative viability ([9]; first compound 0.1 µM): 0.974 | relative viability ([9]; first compound 0.3162 µM): 0.912 | relative viability ([9]; first compound 1 µM): 0.688 | relative viability ([10]; first compound 0.01 µM): 0.468 | relative viability ([10]; first compound 0.03162 µM): 0.44 | relative viability ([10]; first compound 0.1 µM): 0.417 | relative viability ([10]; first compound 0.3162 µM): 0.399 | relative viability ([10]; first compound 1 µM): 0.272 | relative viability ([11]; first compound 0.01 µM): 1.02 | relative viability ([11]; first compound 0.03162 µM): 1.05 | relative viability ([11]; first compound 0.1 µM): 1.16 | relative viability ([11]; first compound 0.3162 µM): 1.08 | relative viability ([11]; first compound 1 µM): 0.929 | relative viability ([12]; first compound 0.01 µM): 1.02 | relative viability ([12]; first compound 0.03162 µM): 0.896 | relative viability ([12]; first compound 0.1 µM): 1.13 | relative viability ([12]; first compound 0.3162 µM): 1.2 | relative viability ([12]; first compound 1 µM): 1.03 | relative viability ([13]; first compound 0.01 µM): 1.01 | relative viability ([13]; first compound 0.03162 µM): 0.95 | relative viability ([13]; first compound 0.1 µM): 0.898 | relative viability ([13]; first compound 0.3162 µM): 0.937 | relative viability ([13]; first compound 1 µM): 0.986 | relative viability ([14]; first compound 0.01 µM): 0.797 | relative viability ([14]; first compound 0.03162 µM): 0.804 | relative viability ([14]; first compound 0.1 µM): 0.919 | relative viability ([14]; first compound 0.3162 µM): 0.705 | relative viability ([14]; first compound 1 µM): 0.862 | relative viability ([15]; first compound 0.01 µM): 1.26 | relative viability ([15]; first compound 0.03162 µM): 0.986 | relative viability ([15]; first compound 0.1 µM): 0.742 | relative viability ([15]; first compound 0.3162 µM): 0.597 | relative viability ([15]; first compound 1 µM): 0.284 | relative viability ([16]; first compound 0.01 µM): 0.982 | relative viability ([16]; first compound 0.03162 µM): 0.941 | relative viability ([16]; first compound 0.1 µM): 0.925 | relative viability ([16]; first compound 0.3162 µM): 1.01 | relative viability ([16]; first compound 1 µM): 1.04 | relative viability ([17]; first compound 0.01 µM): 0.904 | relative viability ([17]; first compound 0.03162 µM): 0.803 | relative viability ([17]; first compound 0.1 µM): 0.836 | relative viability ([17]; first compound 0.3162 µM): 0.389 | relative viability ([17]; first compound 1 µM): 0.356 | relative viability ([18]; first compound 0.01 µM): 0.407 | relative viability ([18]; first compound 0.03162 µM): 0.4 | relative viability ([18]; first compound 0.1 µM): 0.56 | relative viability ([18]; first compound 0.3162 µM): 0.58 | relative viability ([18]; first compound 1 µM): 0.433 | relative viability ([19]; first compound 0.01 µM): 0.902 | relative viability ([19]; first compound 0.03162 µM): 0.758 | relative viability ([19]; first compound 0.1 µM): 0.888 | relative viability ([19]; first compound 0.3162 µM): 0.821 | relative viability ([19]; first compound 1 µM): 0.636

C=C1C(=O)O[C@@H](CCCCCCCC)[C@@H]1C(=O)O [C-75] + CC(C)C[C@H](NC(=O)[C@H](Cc1ccccc1)NC(=O)c1cnccn1)B(O)O [Bortezomib] (partner 0.002 µM)
relative viability ([1]; first compound 0.08 µM): 0.828 | relative viability ([1]; first compound 0.253 µM): 0.691 | relative viability ([1]; first compound 0.8 µM): 0.547 | relative viability ([1]; first compound 2.53 µM): 0.745 | relative viability ([1]; first compound 8 µM): 0.586 | relative viability ([2]; first compound 0.08 µM): 1.07 | relative viability ([2]; first compound 0.253 µM): 1.24 | relative viability ([2]; first compound 0.8 µM): 1.08 | relative viability ([2]; first compound 2.53 µM): 1.15 | relative viability ([2]; first compound 8 µM): 1.08 | relative viability ([3]; first compound 0.08 µM): 0.953 | relative viability ([3]; first compound 0.253 µM): 1.05 | relative viability ([3]; first compound 0.8 µM): 0.946 | relative viability ([3]; first compound 2.53 µM): 0.698 | relative viability ([3]; first compound 8 µM): 0.818 | relative viability ([4]; first compound 0.08 µM): 0.66 | relative viability ([4]; first compound 0.253 µM): 0.588 | relative viability ([4]; first compound 0.8 µM): 0.8 | relative viability ([4]; first compound 2.53 µM): 0.656 | relative viability ([4]; first compound 8 µM): 0.684 | relative viability ([5]; first compound 0.08 µM): 0.888 | relative viability ([5]; first compound 0.253 µM): 0.948 | relative viability ([5]; first compound 0.8 µM): 0.7 | relative viability ([5]; first compound 2.53 µM): 0.7 | relative viability ([5]; first compound 8 µM): 0.641 | relative viability ([6]; first compound 0.08 µM): 0.497 | relative viability ([6]; first compound 0.253 µM): 0.259 | relative viability ([6]; first compound 0.8 µM): 0.447 | relative viability ([6]; first compound 2.53 µM): 0.315 | relative viability ([6]; first compound 8 µM): 0.26 | relative viability ([7]; first compound 0.08 µM): 1.14 | relative viability ([7]; first compound 0.253 µM): 1.22 | relative viability ([7]; first compound 0.8 µM): 1.07 | relative viability ([7]; first compound 8 µM): 1.26 | relative viability ([8]; first compound 0.08 µM): 1.01 | relative viability ([8]; first compound 0.253 µM): 0.988 | relative viability ([8]; first compound 0.8 µM): 1.02 | relative viability ([8]; first compound 2.53 µM): 0.78 | relative viability ([8]; first compound 8 µM): 1.12 | relative viability ([9]; first compound 0.08 µM): 0.996 | relative viability ([9]; first compound 0.253 µM): 1.09 | relative viability ([9]; first compound 0.8 µM): 1.17 | relative viability ([9]; first compound 2.53 µM): 0.947 | relative viability ([9]; first compound 8 µM): 1.01 | relative viability ([10]; first compound 0.08 µM): 0.332 | relative viability ([10]; first compound 0.253 µM): 0.395 | relative viability ([10]; first compound 0.8 µM): 0.4 | relative viability ([10]; first compound 2.53 µM): 0.283 | relative viability ([10]; first compound 8 µM): 0.361 | relative viability ([11]; first compound 0.08 µM): 1.09 | relative viability ([11]; first compound 0.253 µM): 0.995 | relative viability ([11]; first compound 0.8 µM): 0.972 | relative viability ([11]; first compound 2.53 µM): 1.01 | relative viability ([11]; first compound 8 µM): 1.08 | relative viability ([12]; first compound 0.08 µM): 1.18 | relative viability ([12]; first compound 0.253 µM): 1.18 | relative viability ([12]; first compound 0.8 µM): 0.871 | relative viability ([12]; first compound 2.53 µM): 0.996 | relative viability ([12]; first compound 8 µM): 0.988 | relative viability ([13]; first compound 0.08 µM): 1.04 | relative viability ([13]; first compound 0.253 µM): 1.05 | relative viability ([13]; first compound 0.8 µM): 0.944 | relative viability ([13]; first compound 2.53 µM): 0.943 | relative viability ([13]; first compound 8 µM): 1.01 | relative viability ([14]; first compound 0.08 µM): 0.885 | relative viability ([14]; first compound 0.253 µM): 0.863 | relative viability ([14]; first compound 0.8 µM): 0.857 | relative viability ([14]; first compound 2.53 µM): 0.714 | relative viability ([14]; first compound 8 µM): 0.89 | relative viability ([15]; first compound 0.08 µM): 0.953 | relative viability ([15]; first compound 0.253 µM): 1.07 | relative viability ([15]; first compound 0.8 µM): 0.962 | relative viability ([15]; first compound 2.53 µM): 0.865 | relative viability ([15]; first compound 8 µM): 0.696 | relative viability ([16]; first compound 0.08 µM): 0.979 | relative viability ([16]; first compound 0.253 µM): 0.881 | relative viability ([16]; first compound 0.8 µM): 0.845 | relative viability ([16]; first compound 2.53 µM): 0.295 | relative viability ([16]; first compound 8 µM): 0.886 | relative viability ([17]; first compound 0.08 µM): 0.838 | relative viability ([17]; first compound 0.253 µM): 0.627 | relative viability ([17]; first compound 0.8 µM): 0.779 | relative viability ([17]; first compound 2.53 µM): 0.809 | relative viability ([17]; first compound 8 µM): 0.728 | relative viability ([18]; first compound 0.08 µM): 0.572 | relative viability ([18]; first compound 0.253 µM): 0.546 | relative viability ([18]; first compound 0.8 µM): 0.483 | relative viability ([18]; first compound 2.53 µM): 0.546 | relative viability ([18]; first compound 8 µM): 0.455 | relative viability ([19]; first compound 0.08 µM): 0.847 | relative viability ([19]; first compound 0.253 µM): 0.868 | relative viability ([19]; first compound 0.8 µM): 0.666 | relative viability ([19]; first compound 2.53 µM): 0.639 | relative viability ([19]; first compound 8 µM): 0.653
